The target in test [1] is T1, CYP2J3 (Rattus norvegicus, UniProt P51590).
T1 sequence (P51590 1-502): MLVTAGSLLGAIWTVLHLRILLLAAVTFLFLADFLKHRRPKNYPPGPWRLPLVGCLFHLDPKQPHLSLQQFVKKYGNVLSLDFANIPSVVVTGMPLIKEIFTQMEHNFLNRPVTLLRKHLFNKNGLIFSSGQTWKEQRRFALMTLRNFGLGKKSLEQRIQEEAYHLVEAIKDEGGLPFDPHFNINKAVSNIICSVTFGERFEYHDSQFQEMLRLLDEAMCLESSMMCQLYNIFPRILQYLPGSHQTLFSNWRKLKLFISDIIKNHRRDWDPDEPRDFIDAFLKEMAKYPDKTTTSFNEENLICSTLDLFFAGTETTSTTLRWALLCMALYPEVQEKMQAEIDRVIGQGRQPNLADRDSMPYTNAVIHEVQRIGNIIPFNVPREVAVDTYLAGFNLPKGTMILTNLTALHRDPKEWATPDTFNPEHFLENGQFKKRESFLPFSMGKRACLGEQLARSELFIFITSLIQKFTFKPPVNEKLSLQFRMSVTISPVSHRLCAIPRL
In words: astemizole probe-substrate inhibition in pooled rat liver microsomes, LC-MS/MS. The format is biochemical. In general terms: Microsomes from liver hold many membrane-bound enzymes, among them those of drug oxidation.

Test [2] addresses T2, CYP3A2 (Rattus norvegicus, UniProt P05183).
T2 sequence (P05183 1-504): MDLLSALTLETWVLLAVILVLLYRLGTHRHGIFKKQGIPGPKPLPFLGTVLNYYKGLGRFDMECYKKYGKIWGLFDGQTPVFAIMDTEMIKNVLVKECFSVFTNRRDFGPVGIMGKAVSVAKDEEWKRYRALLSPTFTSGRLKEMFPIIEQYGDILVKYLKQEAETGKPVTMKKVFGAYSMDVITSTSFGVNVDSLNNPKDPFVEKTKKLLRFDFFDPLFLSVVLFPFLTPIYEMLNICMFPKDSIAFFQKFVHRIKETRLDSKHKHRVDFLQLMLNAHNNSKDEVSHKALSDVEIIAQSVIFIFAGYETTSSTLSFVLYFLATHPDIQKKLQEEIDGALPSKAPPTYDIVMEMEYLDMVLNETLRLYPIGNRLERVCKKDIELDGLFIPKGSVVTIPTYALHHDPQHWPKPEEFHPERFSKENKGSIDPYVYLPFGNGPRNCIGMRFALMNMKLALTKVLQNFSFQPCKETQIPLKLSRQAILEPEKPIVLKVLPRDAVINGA
In words: midazolam probe-substrate inhibition in pooled rat liver microsomes, LC-MS/MS. The format is biochemical.

Drawing on article PMC9343791, “Evaluation of Herb–Drug Interaction Between Danshen and Rivaroxaban in Rat and Human Liver Microsomes” (Frontiers in Pharmacology, 2022), this text covers IC50 for one compound.

The term IC50 denotes the point on the concentration scale where inhibition reaches its midpoint. Read a low IC50 as higher potency. As to `Cc1cccc2c3c(ccc12)C1=C(C(=O)C3=O)[C@@H](C)CO1` [dihydrotanshinone I], the IC50 worked out at 6.39 µM in test [1] and 13.8 µM in test [2].
